This note sets out measurements from patent US9586956B2, “Isoquinoline and naphthyridine derivatives” (Genentech, Inc., priority 2012, dated 2017).

The target of this assay is T1, purified human MAP4K4 kinase domain (Homo sapiens, UniProt O95819).
T1 construct: purified human MAP4K4 kinase domain
T1 sequence (O95819 25-289 limits assumed): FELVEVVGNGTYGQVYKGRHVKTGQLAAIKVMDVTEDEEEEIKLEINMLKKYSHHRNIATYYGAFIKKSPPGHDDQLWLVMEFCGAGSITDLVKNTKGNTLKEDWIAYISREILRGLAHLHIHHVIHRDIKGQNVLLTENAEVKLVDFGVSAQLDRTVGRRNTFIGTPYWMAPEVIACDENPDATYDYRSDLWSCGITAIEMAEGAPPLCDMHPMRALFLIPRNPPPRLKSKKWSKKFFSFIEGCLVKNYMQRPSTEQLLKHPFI
The assay can be described thus: MAP4K4 Inhibition Assay Protocol No. 1 (Caliper LabChip, moesin-derived peptide phosphorylation). Format: biochemical. To be noted: Assay 1; 1 nM enzyme, 10 uM ATP, 45 min. On the procedure: The kinase activity of purified human MAP4K4 kinase domain was measured by monitoring the phosphorylation of a peptide substrate derived from moesin protein (Leu-Gly-Arg-Asp-Lys-Tyr-Lys-Thr-Leu-Arg-Gln-Ile-Arg-Gln) fluorescently labeled on the N-terminus with 5-carboxyfluorescein using the Caliper LabChip technology (Caliper Life Sciences, Hopkinton, Mass.). To determine inhibition constants (IC50), compounds were serially diluted in DMSO and added to 10 uL kinase reactions containing 1 nM purified MAP4K4 enzyme, 1 uM peptide substrate, 10 uM ATP, 10 mM MgCl2, 1 mM EGTA, 50 mM Hepes pH 7.2, 1 mM DTT, 0.01% Triton X-100, and 2% DMSO. Reactions were incubated at room temperature in Perkin Elmer Proxiplates for 45 minutes and stopped by the addition of 10 uL of an EDTA-containing solution (50 mM Hepes pH 7.2, 40 mM EDTA, 0.02% Triton X-100). The fraction of phosphorylated peptide was determined as a fraction of total peptide substrate using the Caliper Lab Chip 3000 according to the manufacturer's instructions. IC50 values were determined using the four-parameter non-linear fit model.
Turning to `Cc1ncc(NC(=O)c2cnc(N)c3cc(-c4cccc(F)c4)ccc23)cn1` [Example 117, 1-amino-7-(3-fluorophenyl)-N-(2-methylpyrimidin-5-yl)isoquinoline-4-carboxamide], half-maximal inhibition (IC50) required 0.07 µM. `CN(C)C(=O)CN1CCN(C(=O)c2cnc(N)c3cc(-c4cccc(F)c4)ccc23)CC1` [Example 52, 2-[4-[1-amino-7-(3-fluorophenyl)isoquinoline-4-carbonyl]piperazin-1-yl]-N,N-dimethyl-acetamide]: the IC50 is 1.5 µM. The compound `CNC(=O)C1CN(C(=O)c2cnc(N)c3cc(-c4cccc(F)c4)ccc23)CCO1` (centres unmarked) [Example 60, 4-[1-amino-7-(3-fluorophenyl)isoquinoline-4-carbonyl]-N-methyl-morpholine-2-carboxamide] registered an IC50 of 0.238 µM.

Compound `Nc1ncc(C(=O)NC2CCCC2)c2ccc(-c3cccc(F)c3)cc12` [Example 98, 1-amino-N-cyclopentyl-7-(3-fluorophenyl) isoquinoline-4-carboxamide] had an IC50 of 0.0459 µM. The compound `Nc1ncc(C(=O)NCc2cccnc2)c2ccc(-c3cccc(F)c3)cc12` [Example 94, 1-amino-7-(3-fluorophenyl)-N-(3-pyridylmethyl) isoquinoline-4-carboxamide] came in with an IC50 of 0.077 µM. For `Nc1ncc(C(=O)NCc2cnccn2)c2ccc(-c3cccc(F)c3)cc12` [Example 89, 1-amino-7-(3-fluorophenyl)-N-(pyrazin-2-ylmethyl) isoquinoline-4-carboxamide], the IC50 is 0.231 µM.

In turn, `NC(=O)c1nc(CNC(=O)c2cnc(N)c3cc(-c4cccc(F)c4)ccc23)no1` [Example 61, 3-[[[1-amino-7-(3-fluorophenyl)isoquinoline-4-carbonyl]amino]methyl]-1,2,4-oxadiazole-5-carboxamide] yielded a concentration for half-maximal inhibition (IC50) of 0.0368 µM. As for `COc1ccc(NC(=O)c2cnc(N)c3cc(-c4cccc(F)c4)ccc23)cc1` [Example 75, 1-amino-7-(3-fluorophenyl)-N-(4-methoxyphenyl) isoquinoline-4-carboxamide], the IC50 worked out at 0.0148 µM.

The compound `Nc1ncc(C(=O)Nc2ccccc2)c2ccc(-c3cccc(F)c3)cc12` [Example 62, 1-amino-7-(3-fluorophenyl)-N-phenyl-isoquinoline-4-carboxamide] displayed an IC50 of 0.0338 µM.

`Nc1ncc(C(=O)NCCN2CCC(O)CC2)c2ccc(-c3cccc(F)c3)cc12` [Example 69, 1-amino-7-(3-fluorophenyl)-N-[2-(4-hydroxy-1-piperidyl)ethyl] isoquinoline-4-carboxamide] showed a concentration for half-maximal inhibition (IC50) of 0.35 µM. The compound `NC(=O)CNC(=O)c1cnc(N)c2cc(-c3cccc(F)c3)ccc12` [Example 103, 1-amino-N-(2-amino-2-oxo-ethyl)-7-(3-fluorophenyl) isoquinoline-4-carboxamide] gave an IC50 of 0.115 µM. With `CC(=O)N1CCN(C(=O)c2cnc(N)c3cc(-c4cccc(F)c4)ccc23)CC1` [Example 49, 1-[4-[1-amino-7-(3-fluorophenyl)isoquinoline-4-carbonyl]piperazin-1-yl] ethanone], the IC50 was found to be 2.6 µM. In turn, `Cc1ncccc1NC(=O)c1cnc(N)c2cc(-c3cccc(F)c3)ccc12` [Example 105, 1-amino-7-(3-fluorophenyl)-N-(2-methyl-3-pyridyl) isoquinoline-4-carboxamide] returned an IC50 of 0.0377 µM.

In the case of `CN1CCC(Oc2ccc(NC(=O)c3cnc(N)c4cc(-c5cccc(F)c5)ccc34)cc2)CC1` [Example 86, 1-amino-7-(3-fluorophenyl)-N-[4-[(1-methyl-4-piperidyl)oxy]phenyl] isoquinoline-4-carboxamide], inhibition was half-maximal at 0.0081 µM (IC50). Regarding `Nc1ncc(C(=O)NCC(=O)N2CCOCC2)c2ccc(-c3cccc(F)c3)cc12` [Example 81, 1-amino-7-(3-fluorophenyl)-N-(2-morpholino-2-oxo-ethyl)isoquinoline-4-carboxamide], the IC50 worked out at 0.138 µM. As for `N#CCNC(=O)c1cnc(N)c2cc(-c3cccc(F)c3)ccc12` [Example 111, 1-amino-N-(cyanomethyl)-7-(3-fluorophenyl) isoquinoline-4-carboxamide], the figure is 0.0441 µM; as for `CN1CCN(CCNC(=O)c2cnc(N)c3cc(-c4cccc(F)c4)ccc23)CC1` [Example 83, 1-amino-7-(3-fluorophenyl)-N-[2-(4-methylpiperazin-1-yl)ethyl]isoquinoline-4-carboxamide], 0.217 µM; as for `CC(C)(CNC(=O)c1cnc(N)c2cc(-c3cccc(F)c3)ccc12)N1CCOCC1` [Example 88, 1-amino-7-(3-fluorophenyl)-N-(2-methyl-2-morpholino-propyl)isoquinoline-4-carboxamide], 0.95 µM.

For the compound `Nc1ncc(C(=O)NCCO)c2ccc(-c3cccc(F)c3)cc12` [Example 109, 1-amino-7-(3-fluorophenyl)-N-(2-hydroxyethyl) isoquinoline-4-carboxamide], the 50% inhibitory concentration (IC50) worked out at 0.0774 µM.

Regarding `CS(=O)(=O)N1CCN(C(=O)c2cnc(N)c3cc(-c4cccc(F)c4)ccc23)CC1` [Example 48, [1-amino-7-(3-fluorophenyl)-4-isoquinolyl]-(4-methylsulfonylpiperazin-1-yl)methanone], it took 4.2 µM to reach half-maximal inhibition (IC50). On to `Nc1ncc(C(=O)NC2CC2)c2ccc(-c3cccc(F)c3)nc12` [Example 13, 8-amino-N-cyclopropyl-2-(3-fluorophenyl)-1,7-naphthyridine-5-carboxamide], for which the IC50 amounted to 0.00129 µM. `Nc1ncc(C(=O)NCc2ccncc2)c2ccc(-c3cccc(F)c3)cc12` [Example 93, 1-amino-7-(3-fluorophenyl)-N-(4-pyridylmethyl) isoquinoline-4-carboxamide]: the IC50 was 0.0645 µM. `Nc1ncc(C(=O)NC2CCCC(O)C2)c2ccc(-c3cccc(F)c3)cc12` (centres unmarked) [Example 70, 1-amino-7-(3-fluorophenyl)-N-(3-hydroxycyclohexyl) isoquinoline-4-carboxamide] yielded a half-inhibitory concentration (IC50) of 0.0852 µM.

The compound “1-amino-N-[2-(3,5-dimethyl- pyrazol-1-yl)ethyl]-7- (3-fluorophenyl) isoquinoline-4-carboxamide [Example 79]” gave an IC50 of 1.4 µM. In the case of `N#Cc1cnc(N)c2cc(-c3cccc(F)c3)ccc12` [Example 4, 1-amino-7-(3-fluorophenyl)isoquinoline-4-carbonitrile], the IC50 worked out at 0.0221 µM. `CC(=O)NCCNC(=O)c1cnc(N)c2cc(-c3cccc(F)c3)ccc12` [Example 80, N-(2-acetamidoethyl)-1-amino-7-(3-fluorophenyl) isoquinoline-4-carboxamide]: the IC50 came to 0.25 µM.

In turn, `Nc1ncc(C(=O)NCCN2CCCCC2=O)c2ccc(-c3cccc(F)c3)cc12` [Example 58, 1-amino-7-(3-fluorophenyl)-N-[2-(2-oxo-1-piperidyl)ethyl]isoquinoline-4-carboxamide] displayed a concentration for half-maximal inhibition (IC50) of 0.146 µM. The compound `Nc1ncc(C(=O)NC2CCC2)c2ccc(-c3cccc(F)c3)cc12` [Example 97, 1-amino-N-cyclobutyl-7-(3-fluorophenyl) isoquinoline-4-carboxamide] had an IC50 of 0.03 µM. In turn, `CC(O)CNC(=O)c1cnc(N)c2cc(-c3cccc(F)c3)ccc12` (centres unmarked) [Example 119, 1-amino-7-(3-fluorophenyl)-N-(2-hydroxypropyl) isoquinoline-4-carboxamide] yielded an IC50 of 0.0996 µM. In the case of `Nc1ncc(C(=O)NCC2CCOC2)c2ccc(-c3cccc(F)c3)cc12` (centres unmarked) [Example 59, 1-amino-7-(3-fluorophenyl)-N-(tetrahydrofuran-3-ylmethyl)isoquinoline-4-carboxamide] it was 0.0999 µM; in that of `Cc1cnc(CNC(=O)c2cnc(N)c3cc(-c4cccc(F)c4)ccc23)cn1` [Example 104, 1-amino-7-(3-fluorophenyl)-N-[(5-methylpyrazin-2-yl)methyl]isoquinoline-4-carboxamide], 0.0909 µM; in that of `Cc1cncc(NC(=O)c2cnc(N)c3cc(-c4cccc(F)c4)ccc23)c1` [Example 116, 1-amino-7-(3-fluorophenyl)-N-(5-methyl-3-pyridyl) isoquinoline-4-carboxamide], 0.114 µM. In turn, “1-amino-7-(3-fluorophenyl)- N-(4-hydroxycyclohexyl) isoquinoline-4-carboxamide [Example 113]” displayed an IC50 of 0.0565 µM. In the case of `CC(=O)N1CC(NC(=O)c2cnc(N)c3cc(-c4cccc(F)c4)ccc23)C1` [Example 9, N-(1-acetylazetidin-3-yl)-1-amino-7-(3-fluorophenyl)isoquinoline-4-carboxamide] it was 0.0506 µM; in that of `COc1ccccc1CNC(=O)c1cnc(N)c2cc(-c3cccc(F)c3)ccc12` [Example 90, 1-amino-7-(3-fluorophenyl)-N-[(2-methoxyphenyl)methyl]isoquinoline-4-carboxamide], 0.141 µM. In turn, `Nc1ncc(C(=O)O)c2ccc(-c3cccc(F)c3)cc12` [Example 123, 1-amino-7-(3-fluorophenyl) isoquinoline-4-carboxylic acid] had a half-inhibitory concentration (IC50) of 2.1 µM.

In the case of `Cc1cc(NC(=O)c2cnc(N)c3cc(-c4cccc(F)c4)ccc23)ccn1` [Example 95, 1-amino-7-(3-fluorophenyl)-N-(2-methyl-4-pyridyl) isoquinoline-4-carboxamide], inhibition was half-maximal at 0.0391 µM (IC50).

`Nc1ncc(C(=O)NC2CCOCC2)c2ccc(-c3cccc(F)c3)cc12` [Example 68, 1-amino-7-(3-fluorophenyl)-N-tetrahydropyran-4-yl-isoquinoline-4-carboxamide] had an IC50 of 0.12 µM.

Usually IC50 stands for the concentration that gives 50% inhibition.
